The test system of series [1] is MDA-MB-231 cells. The experiment in a line: In vitro anti-proliferative activity assay (MTT). The format is cell-based. The following applies: Homo sapiens, 48 h incubation. As for the experimental part:
Cells lines were maintained as monolayers in Dulbecco’s Modified Eagle’s Medium (DMEM) supplemented with 10% FBS, 2 mM L-glutamine, 100 U/ml penicillin and 100 µg/ml streptomycin sulfate. Cells were sub-cultured with trypsine/EDTA solution, counted with haemocytometer and plated onto 96-well plates (5000 cells/well) and left overnight to form a semi-confluent monolayer. […] DMSO (100 µl/well) was added to dissolve the formazan crystals with shaking for 10 min after which the absorbance was read at 590 nm against no cell blanks on a FLuo Star Optima microplate reader (BMG Technologies, Germany). Cell proliferation was calculated comparing the OD values of the DMSO control wells and those of the samples represented as % proliferation to the control.
The in vitro anti-proliferative activity of the newly synthesized spirooxindoles 6a–p was examined against TNBC MDA-MB-231 cells. This assay was performed utilizing the 3–(4,5-dimethylthiazol-2-yl)-2,5-diphenyltetrazolium bromide (MTT) colorimetric assay as described by Mosmann[18]. Adriamycin was included in this assay as a reference drug.

Series [2] concerns WI-38 cells. The experiment in a line: In vitro cytotoxic activity, WI-38 cells (MTT). The format is cell-based, human. On the procedure:
WI-38 cells ([…]), were obtained from American Type Culture Collection. The cells were propagated in DMEM supplemented with 10% heat-inactivated FBS (Hyclone), 10 μg/ml of insulin (Sigma), and 1% penicillin-streptomycin. All of the other chemicals and reagents were from Sigma, or Invitrogen. Cytotoxicity was determined using MTT assay following a reported procedure.

The test system of series [3] is caspase-3. The experiment in a line: Active caspase-3 level in MDA-MB-231 cells (ELISA). Format: cell-based. The conditions noted are these: MDA-MB-231 cells treated with compound at its IC50 concentration. As for the experimental part: (§1) The levels of the apoptotic markers (Bax, caspase-3) as well as the anti-apoptotic marker (Bcl-2) were assessed using ELISA colorimetric kits per the manufacturer’s protocol and referring to reported instructions[21]^,[22].
Caspases, a family of cysteineaspartic proteases, are the crucial apoptosis mediators that provide essential links in cell regulatory networks controlling cell death. Caspase-3 is the key executioner caspase which modifies proteins ultimately responsible for apoptosis.

Series [4] concerns Bax. As to the kind of experiment: Bax level in MDA-MB-231 cells (ELISA). The format is cell-based. The following applies: MDA-MB-231 cells treated with compound at its IC50 concentration. As for the experimental part:
as §1
(§2) Bcl-2 family comprises a group of crucial regulatory factors in apoptosis that finely tune the apoptotic switch on/off mechanism. Based on their functional and structural criteria, the members are divided into two major classes; group I proteins that are anti-apoptotic and group II proteins that are apoptotic. Group I anti-apoptotic proteins exert their function by inhibiting group II apoptotic proteins through simply binding to them. Group I proteins bind selectively to the active conformations of group II proteins to prevent them from being inserted into the mitochondria and thus cease the release of pro-apoptotic factors such as cytochrome c, ultimately aborting apoptosis. Thus, the inhibition of group I proteins and/or the activation of group II proteins can successfully induce apoptosis.

The subject of series [5] is Bcl-2. As to the kind of experiment: Bcl-2 level in MDA-MB-231 cells (ELISA). The format is cell-based. The conditions noted are these: MDA-MB-231 cells treated with compound at its IC50 concentration. On the procedure:
as §1, §2

Series [6] has as its target T1, EGFR (Homo sapiens, UniProt P00533).
T1 construct: purchased BPS Biosciences 40321
The experiment in a line: EGFR kinase ELISA assay. The format is biochemical. The following applies: colorimetric ELISA, mean ± SD of three separate experiments. As for the experimental part:
Percent inhibition was calculated by the comparison of compounds treated to control incubations.
Erlotinib, a clinically used EGFR inhibitor, was taken as the reference drug.
In general terms: ELISA stands for enzyme-linked immunosorbent assay.

The subject of series [7] is MDA-MB-231 cells. As to the kind of experiment: Annexin V-FITC apoptosis assay. The conditions noted are these: MDA-MB-231, 24 h. The format is cell-based. As for the experimental part: Phosphatidylserine externalization was measured using Annexin V-FITC/PI apoptosis detection kit (BD Biosciences, San Jose, CA) according to the manufacturer's instructions, as reported earlier. MDA-MB-231cells were treated with 6e at defined concentrations for 24 h.
Externalization of the phospholipid phosphatidylserine at the cell membrane is a one of the well-recognized hallmarks of cells going into apoptosis[17]^,[29].

The subject of series [8] is MDA-MB-231 cells. As to the kind of experiment: Cell cycle analysis (DNA flow cytometry).
Experimental: Then cells were washed twice with ice-cold phosphate buffered saline (PBS). Subsequently, the treated cells were collected by centrifugation, fixed in ice-cold 70% (v/v) ethanol, washed with PBS, re-suspended with 0.1 mg/mL RNase, stained with 40 mg/mL PI, and analyzed by flow cytometry using FACS Calibur (Becton Dickinson, BD, USA). The cell cycle distributions were calculated using CellQuest software (Becton Dickinson).
For series [9], the system named is tsFT210 cells. Details: method as in ref 7 = [7]; 7 Cui C-B , Kakeya H , Osada H. Novel mammalian cell cycle inhibitors, spirotryprostatins A and B, produced by Aspergillus fumigatus , which inhibit mammalian cell cycle at G2/M phase . Tetrahedron 19. The following applies: read-out: IC50, inhibition of cell cycle progression at G2/M phase; cited from earlier work.

Series [10] deals with MDA-MB-231 cancer cell line. The conditions noted are these: TNBC; read-out: IC50, cytotoxic activity MDA-MB-231; cited from earlier work.
In series [11] the test system is MCF-7. Details: method as in PMID 24747063. The following applies: ordinary breast cancer; read-out: IC50, cytotoxic activity MCF-7; cited from earlier work.
Series [12] relates to MDA cell lines. Details: method as in ref 10 = [10]; 10 Jiang X , Sun Y , Yao J , et al Core scaffold‐inspired concise synthesis of chiral spirooxindole‐pyranopyrimidines with broad‐spectrum anticancer potency . Adv Synth Catal 2012; 354 : 917 – 25 . The conditions noted are these: read-out: IC50, cytotoxicity against MDA cell lines; cited from earlier work.

The structures appear in SMILES notation. Like-named read-outs stand apart in the source and are kept apart here.

T1 sequence (P00533 25-1210): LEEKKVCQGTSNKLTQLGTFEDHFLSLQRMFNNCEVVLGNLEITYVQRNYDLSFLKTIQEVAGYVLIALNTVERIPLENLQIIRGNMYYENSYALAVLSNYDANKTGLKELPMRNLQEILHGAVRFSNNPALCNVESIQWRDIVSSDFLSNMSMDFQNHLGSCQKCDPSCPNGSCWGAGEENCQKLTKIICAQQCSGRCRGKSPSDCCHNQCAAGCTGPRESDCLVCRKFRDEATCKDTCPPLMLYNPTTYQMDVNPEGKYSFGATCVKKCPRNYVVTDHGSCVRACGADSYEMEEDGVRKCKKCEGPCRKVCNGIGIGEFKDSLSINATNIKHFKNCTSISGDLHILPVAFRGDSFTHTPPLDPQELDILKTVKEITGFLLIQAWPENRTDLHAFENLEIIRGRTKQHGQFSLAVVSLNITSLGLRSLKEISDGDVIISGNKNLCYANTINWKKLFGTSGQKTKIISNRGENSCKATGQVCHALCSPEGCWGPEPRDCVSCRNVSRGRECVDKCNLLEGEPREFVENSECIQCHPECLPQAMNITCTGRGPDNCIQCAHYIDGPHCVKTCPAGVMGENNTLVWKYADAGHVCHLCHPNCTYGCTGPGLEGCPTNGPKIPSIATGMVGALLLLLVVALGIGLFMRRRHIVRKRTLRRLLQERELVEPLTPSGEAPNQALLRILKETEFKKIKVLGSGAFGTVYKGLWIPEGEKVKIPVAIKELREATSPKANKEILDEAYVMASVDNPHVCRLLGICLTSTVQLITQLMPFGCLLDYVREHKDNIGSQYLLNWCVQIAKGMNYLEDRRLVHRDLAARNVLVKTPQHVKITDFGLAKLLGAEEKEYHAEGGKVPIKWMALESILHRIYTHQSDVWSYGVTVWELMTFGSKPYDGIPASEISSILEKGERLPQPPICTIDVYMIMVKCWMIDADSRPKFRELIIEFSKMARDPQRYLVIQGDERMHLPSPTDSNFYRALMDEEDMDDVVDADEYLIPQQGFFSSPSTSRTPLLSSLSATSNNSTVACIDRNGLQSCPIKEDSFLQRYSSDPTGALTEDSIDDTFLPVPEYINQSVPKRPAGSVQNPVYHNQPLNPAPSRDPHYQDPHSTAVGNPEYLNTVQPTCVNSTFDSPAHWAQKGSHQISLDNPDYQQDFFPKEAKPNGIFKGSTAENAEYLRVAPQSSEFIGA

`N#CC1=C(c2ccccc2)Nc2c(c(-c3cccs3)nn2-c2ccccc2)C12C(=O)Nc1ccccc12` (stereo not drawn) [Compound 6a, 2-Oxo-1',6'-diphenyl-3'-(thiophen-2-yl)-1',7'-dihydrospiro[indoline-3,4'-pyrazolo[3,4-b]pyridine]-5'-carbonitrile] displayed an IC50 in [1] of 6.7 µM. The IC50 in [2] (WI-38, MTT assay, human normal lung fibroblast cell line, read-out: IC50 (µM) WI-38) was 78.1 µM. In addition, the “Selectivity Index” value in [2] (WI-38 versus MDA-MB-231) was 11.7. For the same compound, in series [3], the “Caspase-3” value is 0.3501 ng/mL. Moreover, in [4], the “Bax” value was 405.5 pg/mL and the “Bax, number of folds of control” value was 506.8 folds. Also, in [5], the “Bcl-2” value came to 0.3958 ng/mL; the “Bcl-2, number of folds of control” value came out at 0.147 folds; the “Bcl-2 expression compared to basal level in the control” value was found to be 14.7%. This compound displayed an IC50 in series [6] of 0.43 ± 0.04 µM.

Consider `N#CC1=C(c2ccccc2)Nc2c(c(-c3cccs3)nn2-c2ccccc2)C12C(=O)Nc1ccc(Cl)cc12` (stereo not drawn) [Compound 6e, 5-Chloro-2-oxo-1',6'-diphenyl-3'-(thiophen-2-yl)-1',7'-dihydrospiro[indoline-3,4'-pyrazolo[3,4-b]pyridine]-5'-carbonitrile], for which the IC50 in series [1] is 6.4 µM. The IC50 in [2] (Homo sapiens, WI-38, read-out: IC50 (µM) WI-38) was 43.2 µM. Further, in [3], the “Caspase-3” value came out at 0.4058 ng/mL and the “Caspase-3, number of folds of control” value is ~36.5 folds. Besides, in [4], the “Bax” value is 353.7 pg/mL and the “Bax, number of folds of control” value stood at 442.1 folds. Further, in series [5], the “Bcl-2” value is 0.7449 ng/mL and the “Bcl-2, number of folds of control” value was determined as 0.276 folds. In addition, in [7], the “Annexin V-FITC positive apoptotic cells, folds compared to control” value is listed as “about 32.8 folds”. The “Percent of annexin V-FITC positive apoptotic cells (UR + LR)” value in [7] (control 1.34%) turned out to be 44%. Besides, the IC50 in series [6] was found to be 0.15 ± 0.02 µM. In series [8], the “Cells in G2-M phase” value is listed as 19.1% and the “Change in the S phase” value was “no significant change”.

As for `CC(C)=CC1N2C(=O)C3CCCN3C(=O)C2=CC12C(=O)Nc1ccccc12` (stereo not drawn) [Spirotryprostatins B], in series [9], the IC50 is 14 µM.

For the compound `CC(C)(C)C1=NN(c2ccccc2)C2(C(=O)Nc3c(Cl)cccc32)C1c1ccccc1` (stereo not drawn) [compound (iii)], the IC50 was 6.4 µM in [10] and 8.6 µM in series [11].

As to `CC(=O)n1c(C)nc2c(c1=O)[C@@]1(C(=O)Nc3c(F)cccc31)c1c(c3cc(F)ccc3oc1=O)O2` [derivative (ii)], the IC50 in [12] was 6.9 µM.
